Experiments:
Assay type in all cases: physicochemical
[1] = Stability of crystal forms in aqueous medium at 37 °C (XRPD of solids from 5 mg/mL suspension); settings: for XRPD: 37 °C; for crystal form transformation: 24 hours
Description: (§1) The crystal form of the samples was analyzed using a Bruker D8 ADVANCE or Bruker D8 Focus X-ray powder diffractometer. The samples were scanned with the 2θ scanning angle of 3° to 42°, the scanning step of 0.02°, and the scanning time of 0.05 s or 0.1 s or 0.2 s per step. The voltage and current for fluorescent tubes were 40 kV and 40 mA, respectively. During sample preparation, an appropriate amount of samples were placed on a sample tray and flattened with a glass sheet or other tools to ensure a smooth and flat surface.
Table 2: Results of Stability of Crystal Forms A and B in Aqueous Medium at 37 °C

[2] = Solid dispersion by hot-melt extrusion with Povidone K30: content of related substance D1 and of active ingredient; settings: for Content of related substance D1 in starting material: before hot-melt extrusion, Not detected: detected content < 0.0045%; for Content of active pharmaceutical ingredient in sample / Content of related substance D1 in sample: solid dispersion, Povidone K30 1:3, hot-melt extrusion up to 200 °C
Text: Under the same hot-melt extrusion conditions, the contents of related substance D1 in the solid dispersions prepared from the crystal forms A (prepared according to the preparation method 1 of Example 1) and B (prepared according to the preparation method of Example 2) were investigated, respectively. The structure of the related substance D1 is represented by formula (II). [drawing 4]
Preparation of solid dispersion by hot-melt extrusion: the active pharmaceutical ingredient of crystal form A (prepared according to the preparation method 1 of Example 1) or B (prepared according to the method of Example 2) and Povidone K30 were weighed respectively and then evenly mixed at a ratio of 1:3; after the temperature of each temperature zone for hot-melt […] reached 130 °C, 150 °C, 180 °C, 195 °C, 200 °C, 200 °C, 200 °C, and 200 °C and balanced for 15 min, the mixture was added to the hopper of an extruder; and the resulting solids were collected and left to cool at room temperature, and then tested for the content of the related substance D1, respectively. Table 3: Results of Prepared Samples of Crystal Forms A and B
Not detected: the detected content of related substance D1 was < 0.0045%.

[3] = Thermal and moisture stability of crystal forms (HPLC and XRPD after storage in a stability test chamber); settings: for degradation: under the test conditions of Table 1; for crystal form change (overlay of XRPD forms): under the test conditions, FIGS. 15 and 16
Description: as §1
Solubility and stability tests were carried out using Agilient 1260 HPLC under the following conditions: column: ZORBAX Eclipse Plus Cl8 4.6* 100 mm 3.5-Micron; flow rate: 1 mL/min; column temperature: 35 °C; injection volume: 10 µL; mobile phases: mobile phase A: 0.02 mol/L potassium dihydrogen phosphate, and mobile phase B: ACN; running time: 40 min; detector: UV at 210 nm; diluent: ACN; and injection concentration: 0.2 mg/mL.
A certain amount of samples of the crystal forms A (prepared according to the preparation method 1 of Example 1) and B (prepared according to the method of Example 2) of the compound of formula (I) were placed into a stability test chamber, and taken out for HPLC and XRPD testing after a certain period of time.
Test conditions were as follows: under open conditions at 25 °C with 60% RH (25 °C/60% RH) or at 40 °C with 75% RH (40 °C/75% RH), HPLC and XRPD was characterized after one week, two weeks, 1 month and 2 months respectively; and HPLC and XRPD were characterized under closed conditions at 80 °C for one day and under closed conditions with lighting for 10 days, respectively. Table 1: Results of Stability of Crystal Forms A and B

[4] = Impact of drying conditions on crystal form stability (XRPD); settings: wet samples dried at 40 °C or 60 °C under vacuum, or under nitrogen at room temperature or 40 °C; 0 h to 48 h
Description: as §1

[5] = Hygroscopic weight gain test
Description: On Days 0, 20 and 25, the samples were set out respectively, with the temperature and humidity conditions controlled to 25 ± 2 °C/75 ± 5% RH and 25 ± 2 °C/90 ± 5% RH. All samples were sampled and weighed on Day 30 to calculate the hygroscopic weight gain (%).

[6] = FeSSIF, 24 h (first FeSSIF line)
[7] = FeSSIF, 24 h (second FeSSIF line)

Cn1cc2cc(C(F)(F)c3nnc4ccc(-c5cnn(C6CC6)c5)nn34)c(F)cc2n1 [Crystal form A]
XRPD ([1]; FaSSIF, 24 h): Unchanged | XRPD [1, 6]: Unchanged | XRPD [1, 7]: Unchanged | XRPD ([1]; Water, 24 h): Crystal form B | crystal form transformation ([1]; buffers of different pHs and water): transformed to the crystal form B | XRPD ([1]; pH 1.2 buffer, 24 h): Crystal form B | XRPD ([1]; pH 3.0 buffer, 24 h): Crystal form B | XRPD ([1]; pH 4.5 buffer, 24 h): Crystal form B | XRPD ([1]; pH 6.8 buffer, 24 h): Crystal form B | XRPD ([1]; pH 7.4 buffer, 24 h): Crystal form B | crystal form transformation ([1]; simulated biological media): without crystal form transformation | Content of related substance D1 in starting material [2]: Not detected | Content of active pharmaceutical ingredient in sample [2]: 101.6% | Content of related substance D1 in sample [2]: 0.08% | Degradation (%) ([3]; 25 °C/60% RH, open, 1 month): 0% | Purity (%) ([3]; 25 °C/60% RH, open, 1 month): 99.98% | XRPD ([3]; 25 °C/60% RH, open, 1 month): Unchanged | Degradation (%) ([3]; 25 °C/60% RH, open, 1 week): 0% | Purity (%) ([3]; 25 °C/60% RH, open, 1 week): 99.98% | XRPD ([3]; 25 °C/60% RH, open, 1 week): Unchanged | Degradation (%) ([3]; 25 °C/60% RH, open, 2 months): 0% | Purity (%) ([3]; 25 °C/60% RH, open, 2 months): 99.98% | XRPD ([3]; 25 °C/60% RH, open, 2 months): Unchanged | Degradation (%) ([3]; 25 °C/60% RH, open, 2 weeks): 0% | Purity (%) ([3]; 25 °C/60% RH, open, 2 weeks): 99.98% | XRPD ([3]; 25 °C/60% RH, open, 2 weeks): Unchanged | Degradation (%) ([3]; 40 °C/75% RH, open, 1 month): 0% | Purity (%) ([3]; 40 °C/75% RH, open, 1 month): 99.98% | XRPD ([3]; 40 °C/75% RH, open, 1 month): Unchanged | Degradation (%) ([3]; 40 °C/75% RH, open, 1 week): 0.01% | Purity (%) ([3]; 40 °C/75% RH, open, 1 week): 99.97% | XRPD ([3]; 40 °C/75% RH, open, 1 week): Unchanged | Degradation (%) ([3]; 40 °C/75% RH, open, 2 months): 0.01% | Purity (%) ([3]; 40 °C/75% RH, open, 2 months): 99.97% | XRPD ([3]; 40 °C/75% RH, open, 2 months): Unchanged | Degradation (%) ([3]; 40 °C/75% RH, open, 2 weeks): 0% | Purity (%) ([3]; 40 °C/75% RH, open, 2 weeks): 99.98% | XRPD ([3]; 40 °C/75% RH, open, 2 weeks): Unchanged | Degradation (%) ([3]; 80 °C, closed, 1 d): 0% | Purity (%) ([3]; 80 °C, closed, 1 d): 99.98% | XRPD ([3]; 80 °C, closed, 1 d): Unchanged | Degradation (%) ([3]; Lighting control, 10 d): 0% | Purity (%) ([3]; Lighting control, 10 d): 99.98% | XRPD ([3]; Lighting control, 10 d): Unchanged | Degradation (%) ([3]; Lighting, closed, 10 d): 0% | Purity (%) ([3]; Lighting, closed, 10 d): 99.98% | XRPD ([3]; Lighting, closed, 10 d): Unchanged | Purity (%) ([3]; Start): 99.98% | degradation [3]: almost no degradation | crystal form change (overlay of XRPD forms) [3]: have not changed

Cn1cc2cc(C(F)(F)c3nnc4ccc(-c5cnn(C6CC6)c5)nn34)c(F)cc2n1 [Crystal form B]
XRPD ([1]; FaSSIF, 24 h): Unchanged | XRPD [1, 6]: Unchanged | XRPD [1, 7]: Unchanged | XRPD ([1]; Water, 24 h): Unchanged | crystal form change ([1]; all media): no change | XRPD ([1]; pH 1.2 buffer, 24 h): Unchanged | XRPD ([1]; pH 3.0 buffer, 24 h): Unchanged | XRPD ([1]; pH 4.5 buffer, 24 h): Unchanged | XRPD ([1]; pH 6.8 buffer, 24 h): Unchanged | XRPD ([1]; pH 7.4 buffer, 24 h): Unchanged | crystal form during drying (XRPD) [4]: no other crystal forms appear during drying | Content of related substance D1 in starting material [2]: Not detected | Content of active pharmaceutical ingredient in sample [2]: 101.8% | Content of related substance D1 in sample [2]: 0.05% | Hygroscopic weight gain (%) ([5]; 25 + 2°C/90 + 5% RH, 5 days): 1% | Hygroscopic weight gain (%) ([5]; 25 + 2°C/90 + 5% RH, 10 days): 1% | Hygroscopic weight gain (%) ([5]; 25 + 2°C/90 + 5% RH, 30 days): 1% | Hygroscopic weight gain (%) ([5]; 25 ± 2°C/75 + 5% RH, 5 days): 1% | Hygroscopic weight gain (%) ([5]; 25 ± 2°C/75 + 5% RH, 10 days): 1% | Hygroscopic weight gain (%) ([5]; 25 ± 2°C/75 + 5% RH, 30 days): 1% | hygroscopic weight gain ([5]; high humidity conditions for 5 days, 10 days and 30 days (text summary; less than 2%, slight hygroscopicity)): approximately 1% | Degradation (%) ([3]; 25 °C/60% RH, open, 1 month): 0% | Purity (%) ([3]; 25 °C/60% RH, open, 1 month): 99.98% | XRPD ([3]; 25 °C/60% RH, open, 1 month): Unchanged | Degradation (%) ([3]; 25 °C/60% RH, open, 1 week): 0% | Purity (%) ([3]; 25 °C/60% RH, open, 1 week): 99.98% | XRPD ([3]; 25 °C/60% RH, open, 1 week): Unchanged | Degradation (%) ([3]; 25 °C/60% RH, open, 2 months): 0.01% | Purity (%) ([3]; 25 °C/60% RH, open, 2 months): 99.97% | XRPD ([3]; 25 °C/60% RH, open, 2 months): Unchanged | Degradation (%) ([3]; 25 °C/60% RH, open, 2 weeks): 0% | Purity (%) ([3]; 25 °C/60% RH, open, 2 weeks): 99.98% | XRPD ([3]; 25 °C/60% RH, open, 2 weeks): Unchanged | Degradation (%) ([3]; 40 °C/75% RH, open, 1 month): 0% | Purity (%) ([3]; 40 °C/75% RH, open, 1 month): 99.98% | XRPD ([3]; 40 °C/75% RH, open, 1 month): Unchanged | Degradation (%) ([3]; 40 °C/75% RH, open, 1 week): 0.01% | Purity (%) ([3]; 40 °C/75% RH, open, 1 week): 99.97% | XRPD ([3]; 40 °C/75% RH, open, 1 week): Unchanged | Degradation (%) ([3]; 40 °C/75% RH, open, 2 months): 0.02% | Purity (%) ([3]; 40 °C/75% RH, open, 2 months): 99.96% | XRPD ([3]; 40 °C/75% RH, open, 2 months): Unchanged | Degradation (%) ([3]; 40 °C/75% RH, open, 2 weeks): -0.01% | Purity (%) ([3]; 40 °C/75% RH, open, 2 weeks): 99.99% | XRPD ([3]; 40 °C/75% RH, open, 2 weeks): Unchanged | Degradation (%) ([3]; 80 °C, closed, 1 d): 0.01% | Purity (%) ([3]; 80 °C, closed, 1 d): 99.97% | XRPD ([3]; 80 °C, closed, 1 d): Unchanged | Degradation (%) ([3]; Lighting control, 10 d): 0% | Purity (%) ([3]; Lighting control, 10 d): 99.98% | XRPD ([3]; Lighting control, 10 d): Unchanged | Degradation (%) ([3]; Lighting, closed, 10 d): 0% | Purity (%) ([3]; Lighting, closed, 10 d): 99.98% | XRPD ([3]; Lighting, closed, 10 d): Unchanged | Purity (%) ([3]; Start): 99.98% | degradation [3]: almost no degradation | crystal form change (overlay of XRPD forms) [3]: have not changed

From patent EP4741394A1, “CRYSTAL FORM OF [1,2,4]TRIAZOLO[4,3-B]PYRIDAZINE COMPOUND, AND PREPARATION METHOD THEREFOR AND USE THEREOF” (Beijing Pearl Biotechnology Limited Liability Company, priority 2023, dated 2025)
